Data: patent publication US8361968B2 (Takeda Pharmaceutical Company Limited, priority 2002, dated 2013)
Numbered stars: 1 amine (or outer) side, 2 acyl side, 3 side chain; on linkers, the order of the positions; unused ones are H or OH. Square brackets hold non-standard residues; d marks the D form. Ends that are not written are not given here. Peptide text beside a SMILES is read from it. * marks the point of attachment. X12 = CNC(=N)NCCC[C@H](NC(=O)[C@H](CC(C)C)NCCN*)C(=O)N[C@@H](Cc1ccccc1)C(N)=O; X10 = NC(=O)C[C@@H](C(=O)[*:2])N(C[C@@H](N)Cc1ccc(O)cc1)[*:1]; Acetyl(2-(4-imidazolyl)) = O=C(Cc1c[nH]cn1)*; Phe(4-F) = N[C@@H](Cc1ccc(F)cc1)C(=O)O; Arg(Me) = CNC(=N)NCCC[C@H](N)C(=O)O; 4Pal = N[C@@H](Cc1ccncc1)C(=O)O; d4Pal = N[C@H](Cc1ccncc1)C(=O)O; Cha = N[C@@H](CC1CCCCC1)C(=O)O; Boc = CC(C)(C)OC(=O)*; azaGly = NNC(=O)O

Each molecule was assayed against T1, hOT7T175 (Homo sapiens, UniProt Q969F8, L364H) (assay: Intracellular Ca ion level-increasing activity using FLIPR in hOT7T175/CHO). Details: relative, Metastin (1-54) = 1.
Type: cell-based
Design: expressed in transfected cells; host or cells: CHO/dhfr- cells, obtained from ATCC

T1 sequence (Q969F8 whole entry L364H): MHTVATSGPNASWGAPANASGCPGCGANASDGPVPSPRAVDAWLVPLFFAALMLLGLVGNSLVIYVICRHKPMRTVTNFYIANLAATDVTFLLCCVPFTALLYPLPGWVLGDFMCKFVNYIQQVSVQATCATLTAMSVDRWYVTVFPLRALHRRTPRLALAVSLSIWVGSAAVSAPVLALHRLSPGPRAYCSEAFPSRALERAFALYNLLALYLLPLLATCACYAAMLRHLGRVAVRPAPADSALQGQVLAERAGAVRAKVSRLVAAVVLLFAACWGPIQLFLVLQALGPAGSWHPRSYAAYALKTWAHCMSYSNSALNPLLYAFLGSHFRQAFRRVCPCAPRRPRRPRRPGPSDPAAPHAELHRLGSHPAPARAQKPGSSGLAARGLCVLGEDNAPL

Point of comparison: `CNC(=N)NCCC[C@H](NC(=O)[C@H](CC(C)C)NC(=O)NNC(=O)[C@H](Cc1ccccc1)NC(=O)[C@H](CO)NC(=O)[C@H](CC(N)=O)NC(=O)[C@@H](Cc1c[nH]c2ccccc12)NC(=O)[C@H](CC(N)=O)NC[C@@H](N)Cc1ccc(O)cc1)C(=O)N[C@@H](Cc1ccccc1)C(N)=O` [Compound No. 300, TyrΨ(CH2NH)Asn-D-Trp-Asn-Ser-Phe-AzaGly-Leu-Arg(Me)-Phe-NH2] (H-[X10][dW]NSF[azaGly]L[Arg(Me)]F-NH2), “Specific Activity (intracellular Ca ion level-increasing activity)” value 5. Against it:
- CNC(=N)NCCC[C@H](NC(=O)[C@H](CC(C)C)NC(=O)NNC(=O)[C@H](Cc1ccccc1)NC(=O)[C@H](CO)NC(=O)[C@H](CC(N)=O)NC(=O)[C@@H](Cc1ccncc1)NC(=O)[C@H](CC(N)=O)NC(=O)[C@H](N)Cc1ccc(O)cc1)C(=O)N[C@@H](Cc1ccccc1)C(N)=O [Compound No. 302, D-Tyr-Asn-D-Pya(4)-Asn-Ser-Phe-AzaGly-Leu-Arg(Me)-Phe-NH2] (H-[dY]N[d4Pal]NSF[azaGly]L[Arg(Me)]F-NH2) — lower, 2
- CNC(=N)NCCC[C@H](NC(=O)[C@H](CC(C)C)NC(=O)NNC(=O)[C@H](Cc1ccccc1)NC(=O)[C@H](CO)NC(=O)[C@H](CC(N)=O)NC(=O)[C@H](Cc1ccncc1)NC(=O)[C@@H](CC(N)=O)NC(=O)[C@@H](N)Cc1ccc(O)cc1)C(=O)N[C@@H](Cc1ccccc1)C(N)=O [Compound No. 304, Tyr-D-Asn-Pya(4)-Asn-Ser-Phe-AzaGly-Leu-Arg(Me)-Phe-NH2] (H-Y[dN][4Pal]NSF[azaGly]L[Arg(Me)]F-NH2) — lower, 3
- CNC(=N)NCCC[C@H](NC(=O)[C@H](CC(C)C)NC(=O)NNC(=O)[C@H](Cc1ccccc1)NC(=O)[C@H](CO)NC(=O)[C@H](CC(N)=O)NC(=O)[C@H](CC1CCCCC1)NC(=O)[C@@H](CC(N)=O)NC(=O)[C@H](N)Cc1ccncc1)C(=O)N[C@@H](Cc1ccccc1)C(N)=O [Compound No. 306, D-Pya(4)-D-Asn-Cha-Asn-Ser-Phe-AzaGly-Leu-Arg(Me)-Phe-NH2] (H-[d4Pal][dN][Cha]NSF[azaGly]L[Arg(Me)]F-NH2) — lower, 2
- CNC(=N)NCCC[C@H](NC(=O)[C@H](CC(C)C)NCCNC(=O)[C@H](Cc1ccccc1)NC(=O)[C@H](CO)NC(=O)[C@H](CC(N)=O)NC(=O)[C@H](Cc1c[nH]c2ccccc12)NC(=O)[C@H](CC(N)=O)NC(=O)[C@H](N)Cc1ccc(O)cc1)C(=O)N[C@@H](Cc1ccccc1)C(N)=O [Compound No. 307, D-Tyr-Asn-Trp-Asn-Ser-Phe-GlyΨ(CH2NH)Leu-Arg(Me)-Phe-NH2] (H-[dY]NWNSF-X12) — lower, 1
- CC(C)C[C@H](NC(=O)CNC(=O)[C@H](Cc1ccccc1)NC(=O)[C@H](CO)NC(=O)[C@H](CC(N)=O)NC(=O)[C@H](Cc1c[nH]c2ccccc12)NC(=O)[C@H](CC(N)=O)NC(=O)[C@@H](N)Cc1ccc(O)cc1)C(=O)N[C@@H](CCNC(=N)N)C(=O)N[C@@H](Cc1ccccc1)C(N)=O [Compound No. 310] — lower, 3
- CNC(=N)NCCC[C@H](NC(=O)[C@H](CC(C)C)NC(=O)NNC(=O)[C@H](Cc1ccccc1)NC(=O)[C@H](CO)NC(=O)[C@H](CC(N)=O)NC(=O)[C@H](Cc1ccncc1)NC(=O)[C@@H](CC(N)=O)NC(=O)[C@H](N)Cc1ccc(O)cc1)C(=O)N[C@@H](Cc1ccc(F)cc1)C(N)=O [Compound No. 317, D-Tyr-D-Asn-Pya(4)-Asn-Ser-Phe-AzaGly-Leu-Arg(Me)-Phe(4F)-NH2] (H-[dY][dN][4Pal]NSF[azaGly]L[Arg(Me)][Phe(4-F)]-NH2) — lower, 1
- CNC(=N)NCCC[C@H](NC(=O)[C@H](CC(C)C)NC(=O)NNC(=O)[C@H](Cc1ccccc1)NC(=O)[C@H](CO)NC(=O)[C@H](CC(N)=O)NC(=O)[C@H](Cc1c[nH]c2ccccc12)NC(=O)[C@H](CC(N)=O)NC(=O)[C@H](N)Cc1ccc(O)cc1)C(=O)N[C@@H](Cc1ccc(F)cc1)C(N)=O [Compound No. 318, D-Tyr-Asn-Trp-Asn-Ser-Phe-AzaGly-Leu-Arg(Me)-Phe(4F)-NH2] — the same, 5
- CNC(=N)NCCC[C@H](NC(=O)[C@H](CC(C)C)NC(=O)NNC(=O)[C@H](Cc1ccccc1)NC(=O)[C@H](CO)NC(=O)[C@H](CC(N)=O)NC(=O)Cc1c[nH]cn1)C(=O)N[C@@H](Cc1ccccc1)C(N)=O [Compound No. 323, 4-Imidazoleacetyl-Asn-Ser-Phe-AzaGly-Leu-Arg(Me)-Phe-NH2] ({Acetyl(2-(4-imidazolyl))}-NSF[azaGly]L[Arg(Me)]F-NH2) — lower, 1
- Boc-Tyr-Asn-Trp-Phe-Gly-Leu-Arg-Phe-NH2 (Boc-YNWFGLRF-NH2; SMILES CC(C)C[C@H](NC(=O)CNC(=O)[C@H](Cc1ccccc1)NC(=O)[C@H](Cc1c[nH]c2ccccc12)NC(=O)[C@H](CC(N)=O)NC(=O)[C@H](Cc1ccc(O)cc1)NC(=O)OC(C)(C)C)C(=O)N[C@@H](CCCNC(=N)N)C(=O)N[C@@H](Cc1ccccc1)C(N)=O) [Compound No. 87] — lower, 1
- D-Tyr-Asn-Trp-Asn-Ser-Phe-Ala-Leu-Arg(Me)-Phe-NH2 ([dY]NWNSFAL[Arg(Me)]F-NH2; N-terminus assumed; SMILES CNC(=N)NCCC[C@H](NC(=O)[C@H](CC(C)C)NC(=O)[C@H](C)NC(=O)[C@H](Cc1ccccc1)NC(=O)[C@H](CO)NC(=O)[C@H](CC(N)=O)NC(=O)[C@H](Cc1c[nH]c2ccccc12)NC(=O)[C@H](CC(N)=O)NC(=O)[C@H](N)Cc1ccc(O)cc1)C(=O)N[C@@H](Cc1ccccc1)C(N)=O) [Compound No. 173] — lower, 1
- D-Tyr-D-Pya(4)-Asn-Ser-Phe-AzaGly-Leu-Arg(Me)-Trp-NH2 [Compound No. 385] — higher, 10
- Dap-D-Tyr-Asn-Trp-Asn-Ser-Phe-Gly-Leu-Arg(Me)-Phe-NH2 [Compound No. 387] — lower, 1
- Methylthiocarbamoyl-Sar-D-Tyr-Asn-Trp-Asn-Ser-Phe-Gly-Leu-Arg(Me)-Phe-NH2 [Compound No. 397] — the same, 5
- Tyr-Asn-Trp-Asn-Ser-Phe-Gly-Ala-Arg-Phe-NH2 (YNWNSFGARF-NH2) [Compound No. 45] — lower, 1
- Tyr-Asn-Trp-Phe-Gly-Leu-Arg-Phe-NH2 (YNWFGLRF-NH2) [Compound No. 88] — lower, 1

In the case of “D-Tyr-Asn-Trp-Gln-Ser-Phe-Gly-Leu-Arg(Me)-Phe-NH2 ([dY]NWQSFGL[Arg(Me)]F-NH2; N-terminus assumed; SMILES CNC(=N)NCCC[C@H](NC(=O)[C@H](CC(C)C)NC(=O)CNC(=O)[C@H](Cc1ccccc1)NC(=O)[C@H](CO)NC(=O)[C@H](CCC(N)=O)NC(=O)[C@H](Cc1c[nH]c2ccccc12)NC(=O)[C@H](CC(N)=O)NC(=O)[C@H](N)Cc1ccc(O)cc1)C(=O)N[C@@H](Cc1ccccc1)C(N)=O) [Compound No. 209]”, the “Specific Activity (intracellular Ca ion level-increasing activity)” value is reported as “½”.
“D-Tyr-Asn-Trp-Ser-Ser-Phe-Gly-Leu-Arg(Me)-Phe-NH2 ([dY]NWSSFGL[Arg(Me)]F-NH2; N-terminus assumed; SMILES CNC(=N)NCCC[C@H](NC(=O)[C@H](CC(C)C)NC(=O)CNC(=O)[C@H](Cc1ccccc1)NC(=O)[C@H](CO)NC(=O)[C@H](CO)NC(=O)[C@H](Cc1c[nH]c2ccccc12)NC(=O)[C@H](CC(N)=O)NC(=O)[C@H](N)Cc1ccc(O)cc1)C(=O)N[C@@H](Cc1ccccc1)C(N)=O) [Compound No. 207]” was tested, and the “Specific Activity (intracellular Ca ion level-increasing activity)” value was “½”.

The molecules below were run against T1, hOT7T175 (assay: hOT7T175 receptor binding activity: binding inhibition of Cy-5-labeled metastin (40-54) on hOT7T175-expressed CHO cells). Details: not given.
Design: expressed in transfected cells; host or cells: CHO cells
Procedure: Assay for hOT7T175 Receptor Binding Activity
h0T7T175-Expressed CHO cells were cultured in MEM-cc medium (nucleic acid-free) containing 10% dialyzed serum. The medium was removed and the adherent cells were washed with PBS. Then, PBS containing 5 mM EDTA was added and the cells were scraped from a flask with a cell scraper. […] To each well of a 96-Well Black Clear Bottom Plate (Applied Biosystems, Inc.), 10 μL of assay buffer containing 1% dimethylsulfoxide was added to examine total binding, 10 μL of 10 μM non-labeled peptide (having the same amino acid sequence as that of the labeled one) solution diluted with assay buffer to examine non-specific binding, and 10 μL of a test compound diluted with assay buffer to examine the binding inhibition activity of the test compound, respectively. Furthermore, 90 μL each of the cell suspension was dispensed to each well. […] The specific binding is a value obtained by subtracting the non-specific binding from the total binding.

Point of comparison: `CC(C)C[C@H](NC(=O)CNC(=O)[C@H](Cc1ccccc1)NC(=O)[C@H](CO)NC(=O)[C@H](CC(N)=O)NC(=O)[C@H](Cc1c[nH]c2ccccc12)NC(=O)[C@H](CC(=O)O)NC(=O)[C@@H](N)Cc1ccc(O)cc1)C(=O)N[C@@H](CCCNC(=N)N)C(=O)N[C@@H](Cc1ccccc1)C(N)=O` [Compound No. 57] (H-YDWNSFGLRF-NH2), IC50 100 nM. Against it:
- CC(C)C[C@H](NC(=O)CNC(=O)[C@H](Cc1ccccc1)NC(=O)[C@H](CO)NC(=O)[C@H](CC(N)=O)NC(=O)[C@H](Cc1c[nH]c2ccccc12)NC(=O)[C@@H](N)CC(N)=O)C(=O)N[C@@H](CCCNC(=N)N)C(=O)N[C@@H](Cc1ccccc1)C(N)=O [Compound No. 4, des(1)-MS10, reference compound] (H-NWNSFGLRF-NH2; N-terminus assumed) — 2.6-fold higher, 260 nM
- CC(C)C[C@H](NC(=O)CNC(=O)[C@H](Cc1ccccc1)NC(=O)[C@H](CO)NC(=O)[C@H](CC(N)=O)NC(=O)[C@H](Cc1c[nH]c2ccccc12)NC(=O)[C@H](CC(N)=O)NC(=O)[C@@H](N)Cc1ccc(O)cc1)C(=O)N[C@@H](CCCCN)C(=O)N[C@@H](Cc1ccccc1)C(N)=O [Compound No. 44] (H-YNWNSFGLKF-NH2) — 1.9-fold higher, 190 nM
- CC(C)C[C@H](NC(=O)CNC(=O)[C@H](Cc1ccccc1)NC(=O)[C@H](CO)NC(=O)[C@H](CC(N)=O)NC(=O)[C@H](Cc1c[nH]c2ccccc12)NC(=O)[C@H](CC(C)C)NC(=O)[C@@H](N)Cc1ccc(O)cc1)C(=O)N[C@@H](CCCNC(=N)N)C(=O)N[C@@H](Cc1ccccc1)C(N)=O [Compound No. 59] (H-YLWNSFGLRF-NH2) — 3.4-fold higher, 340 nM
